Conditions in all cases: HEK-293T
Experiment [1] relates to Hepatitis C virus. In words: Antiviral activity against pseudo HCV infected in human 293T cells assessed as inhibition of HCV pseudo particles entry at 5 uM after 72 hrs by luciferase reporter gene assay. It counts as functional, Hepacivirus hominis. (In general: Reporter assays use an easily measured gene product as a stand-in for the process of interest.)
The subject of experiment [2] is Hepatitis C virus. The experiment is described as follows: Antiviral activity against pseudo HCV infected in human 293T cells assessed as inhibition of HCV pseudo particles entry at 1 uM after 72 hrs by luciferase reporter gene assay. Type of experiment: functional, Hepacivirus hominis.
The test system of experiment [3] is Vesicular stomatitis virus. In words: Antiviral activity against pseudo VSV infected in human 293T cells assessed as inhibition of vesicular stromatis G protein pseudo particles entry at 5 uM after 72 hrs by luciferase reporter gene assay. It counts as functional.
For experiment [4], the system named is Vesicular stomatitis virus. In words: Antiviral activity against pseudo VSV infected in human 293T cells assessed as inhibition of vesicular stromatis G protein pseudo particles entry at 1 uM after 72 hrs by luciferase reporter gene assay. It counts as functional.

Take `COC(=O)[C@]12CCC(C)(C)C[C@H]1C1=CC[C@@H]3[C@@]4(C)CC[C@H](OS(=O)(=O)c5ccc(C)cc5)C(C)(C)[C@@H]4CC[C@@]3(C)[C@]1(C)C[C@H]2O`: the inhibition at 5 µM stood at 16.4% in the experiment with Hepatitis C virus [1] and 39.3% in experiment [3]. The inhibition at 1 µM in the experiment with Hepatitis C virus [2] stood at 12.3%; in experiment [4] it was 38.3%.

In the case of `COC(=O)[C@]12CCC(C)(C)C[C@H]1C1=CC[C@@H]3[C@@]4(C)CC[C@H](O)C(C)(C)[C@@H]4CC[C@@]3(C)[C@]1(C)C[C@H]2OCc1ccccc1`, the inhibition at 5 µM in the experiment with Hepatitis C virus [1] was 5.8%; in experiment [3], -3.9%. For the same compound, the inhibition at 1 µM was determined as 4.6% with Hepatitis C virus [2] and 1.6% in experiment [4].

For `COC(=O)[C@]12CCC(C)(C)C[C@H]1C1=CC[C@@H]3[C@@]4(C)CC[C@H](OC)C(C)(C)[C@@H]4CC[C@@]3(C)[C@]1(C)C[C@H]2O`, the inhibition at 1 µM was -14% in the experiment on Hepatitis C virus [2] and 9.9% in experiment [4]. Besides, the inhibition at 5 µM in experiment [3] is 30.1%.

Take `CC1(C)CC[C@]2(C(=O)O)[C@H](OS(=O)(=O)O)C[C@]3(C)C(=CC[C@@H]4[C@@]5(C)CC[C@H](O)C(C)(C)[C@@H]5CC[C@]43C)[C@@H]2C1`: the inhibition at 5 µM was -2.7% in the experiment on Hepatitis C virus [1] and 34.7% in experiment [3]. The inhibition at 1 µM with Hepatitis C virus [2] stood at 1%; in experiment [4] it was 38.5%.

As to `CC1(C)CC[C@]2(C(=O)NCc3cn([C@@H]4O[C@H](CO)[C@@H](O[C@H]5O[C@H](CO)[C@@H](O[C@H]6O[C@H](CO)[C@@H](O)[C@H](O)[C@H]6O)[C@H](O)[C@H]5O)[C@H](O)[C@H]4O)nn3)[C@H](O)C[C@]3(C)C(=CC[C@@H]4[C@@]5(C)CC[C@H](O)C(C)(C)[C@@H]5CC[C@]43C)[C@@H]2C1`, the inhibition at 5 µM in the experiment on Hepatitis C virus [1] amounted to 39%; in experiment [3] it was 27.4%. The inhibition at 1 µM with Hepatitis C virus [2] was 12.8%; in experiment [4] it was 19.7%.

For the compound `COC(=O)[C@]12CCC(C)(C)C[C@H]1C1=CC[C@@H]3[C@@]4(C)CC[C@H](OC(C)=O)C(C)(C)[C@@H]4CC[C@@]3(C)[C@]1(C)C[C@H]2OC(C)=O`, the inhibition at 5 µM in the experiment on Hepatitis C virus [1] amounted to 20.1%; in experiment [3], 24.2%. For the same compound, the inhibition at 1 µM was determined as 13.5% with Hepatitis C virus [2] and 15.8% in experiment [4].

Consider `CC1(C)CC[C@]2(C(=O)NCc3cn([C@@H]4OC[C@@H](O)[C@H](O)[C@H]4O)nn3)[C@H](O)C[C@]3(C)C(=CC[C@@H]4[C@@]5(C)CC[C@H](O)C(C)(C)[C@@H]5CC[C@]43C)[C@@H]2C1`, for which the values for the inhibition at 5 µM (with Hepatitis C virus [1]; in experiment [3]) were 27.8% and 27%, respectively. For the same compound, the inhibition at 1 µM with Hepatitis C virus [2] worked out at 14.8%; in experiment [4] it was 34.4%.

With `CC(=O)OC[C@H]1O[C@@H](OC(=O)[C@]23CCC(C)(C)C[C@H]2C2=CC[C@@H]4[C@@]5(C)CC[C@H](O)C(C)(C)[C@@H]5CC[C@@]4(C)[C@]2(C)C[C@H]3O)[C@H](OC(C)=O)[C@@H](OC(C)=O)[C@H]1OC(C)=O`, the inhibition at 5 µM in the experiment on Hepatitis C virus [1] is 81.6%; in experiment [3], 30.7%. Besides, the figures for the inhibition at 1 µM (with Hepatitis C virus [2]; in experiment [4]) were 43.4% and 29.3%, respectively.

Take `CC1(C)CC[C@]2(C(=O)NCc3cn([C@@H]4OC[C@@H](O)[C@@H](O)[C@@H]4O)nn3)[C@H](O)C[C@]3(C)C(=CC[C@@H]4[C@@]5(C)CC[C@H](O)C(C)(C)[C@@H]5CC[C@]43C)[C@@H]2C1`: the values for the inhibition at 5 µM (with Hepatitis C virus [1]; in experiment [3]) were 32.2% and 25.1%, respectively. For the same compound, the values for the inhibition at 1 µM (with Hepatitis C virus [2]; in experiment [4]) were 18.7% and 8.4%, respectively.

For `CC1(C)CC[C@]2(C(=O)NCc3cn([C@@H]4O[C@H](CO)[C@@H](O[C@@H]5O[C@H](CO)[C@@H](O)[C@H](O)[C@H]5O)[C@H](O)[C@H]4O)nn3)[C@H](O)C[C@]3(C)C(=CC[C@@H]4[C@@]5(C)CC[C@H](O)C(C)(C)[C@@H]5CC[C@]43C)[C@@H]2C1`, the inhibition at 5 µM in the experiment with Hepatitis C virus [1] is 11.8%; in experiment [3] it was 50.5%. Besides, the values for the inhibition at 1 µM (in the experiment with Hepatitis C virus [2]; in experiment [4]) were 15.2% and 26.6%, respectively.

For `CC(=O)OC[C@H]1O[C@@H](n2cc(CNC(=O)[C@]34CCC(C)(C)C[C@H]3C3=CC[C@@H]5[C@@]6(C)CC[C@H](O)C(C)(C)[C@@H]6CC[C@@]5(C)[C@]3(C)C[C@H]4O)nn2)[C@H](OC(C)=O)[C@@H](OC(C)=O)[C@@H]1OC(C)=O`, the inhibition at 5 µM is 89.7% in the experiment on Hepatitis C virus [1] and 12.5% in experiment [3]. Moreover, the figures for the inhibition at 1 µM (in the experiment on Hepatitis C virus [2]; in experiment [4]) were 20.3% and -9.1%, respectively.

As for `CC(=O)OC[C@H]1O[C@@H](n2cc(CNC(=O)[C@]34CCC(C)(C)C[C@H]3C3=CC[C@@H]5[C@@]6(C)CC[C@H](O)C(C)(C)[C@@H]6CC[C@@]5(C)[C@]3(C)C[C@H]4O)nn2)[C@H](OC(C)=O)[C@@H](OC(C)=O)[C@@H]1O[C@@H]1O[C@H](COC(C)=O)[C@@H](OC(C)=O)[C@H](OC(C)=O)[C@H]1OC(C)=O`, the inhibition at 5 µM with Hepatitis C virus [1] stood at 64.8%; in experiment [3], 38.8%. Further, the inhibition at 1 µM with Hepatitis C virus [2] was 11.9%; in experiment [4], 36.8%.

As to `CC1(C)CC[C@]2(C(=O)O[C@@H]3O[C@H](CO)[C@@H](O)[C@H](O)[C@H]3O)[C@H](O)C[C@]3(C)C(=CC[C@@H]4[C@@]5(C)CC[C@H](O)C(C)(C)[C@@H]5CC[C@]43C)[C@@H]2C1`, the inhibition at 5 µM with Hepatitis C virus [1] is 67.5%; in experiment [3], 5.6%. Further, the inhibition at 1 µM with Hepatitis C virus [2] was found to be 30.6%; in experiment [4], 12.9%.

As for `COC(=O)[C@@]12C=C[C@]3(C)C(=CC[C@@H]4[C@@]5(C)CC[C@H](O)C(C)(C)[C@@H]5CC[C@]43C)[C@@H]1CC(C)(C)CC2`, the inhibition at 5 µM in the experiment with Hepatitis C virus [1] was found to be 27.9%; in experiment [3], 18.8%. Besides, the figures for the inhibition at 1 µM (with Hepatitis C virus [2]; in experiment [4]) were 12.3% and 15.2%, respectively.

For the compound `COC(=O)[C@]12CCC(C)(C)C[C@H]1C1=CC[C@@H]3[C@@]4(C)CC[C@H](OC)C(C)(C)[C@@H]4CC[C@@]3(C)[C@]1(C)C[C@H]2OC`, the values for the inhibition at 5 µM (with Hepatitis C virus [1]; in experiment [3]) were 7.9% and 14.2%, respectively. Besides, the inhibition at 1 µM with Hepatitis C virus [2] worked out at 1.7%; in experiment [4] it was 8.5%.

Take `COC(=O)[C@@]12C=C[C@]3(C)C(=CC[C@@H]4[C@@]5(C)CC=CC(C)(C)[C@@H]5CC[C@]43C)[C@@H]1CC(C)(C)CC2`: the inhibition at 5 µM in the experiment with Hepatitis C virus [1] was 14%; in experiment [3], 33.9%. The inhibition at 1 µM was determined as 35.8% in the experiment on Hepatitis C virus [2] and 20.9% in experiment [4].

As to `COC(=O)[C@]12CCC(C)(C)C[C@H]1[C@H]1C(O)C[C@@H]3[C@@]4(C)CC[C@H](O)C(C)(C)[C@@H]4CC[C@@]3(C)[C@]1(C)C[C@H]2O` (stereo not given in full), the inhibition at 5 µM in the experiment with Hepatitis C virus [1] was found to be 51%; in experiment [3], 43.5%. For the same compound, the inhibition at 1 µM came to 22.6% in the experiment on Hepatitis C virus [2] and 35.8% in experiment [4].

Regarding `CC(=O)OC[C@H]1O[C@@H](n2cc(CNC(=O)[C@]34CCC(C)(C)C[C@H]3C3=CC[C@@H]5[C@@]6(C)CC[C@H](O)C(C)(C)[C@@H]6CC[C@@]5(C)[C@]3(C)C[C@H]4O)nn2)[C@H](OC(C)=O)[C@@H](OC(C)=O)[C@H]1OC(C)=O`, the inhibition at 5 µM worked out at 66.5% in the experiment with Hepatitis C virus [1] and 30.6% in experiment [3]. Also, the values for the inhibition at 1 µM (in the experiment with Hepatitis C virus [2]; in experiment [4]) were 20.4% and 24.3%, respectively.

`CC(=O)O[C@H]1[C@H](OC(C)=O)[C@H](OC(C)=O)CO[C@H]1n1cc(CNC(=O)[C@]23CCC(C)(C)C[C@H]2C2=CC[C@@H]4[C@@]5(C)CC[C@H](O)C(C)(C)[C@@H]5CC[C@@]4(C)[C@]2(C)C[C@H]3O)nn1`: the inhibition at 5 µM amounted to 72.6% in the experiment on Hepatitis C virus [1] and 20.9% in experiment [3]. In addition, the inhibition at 1 µM with Hepatitis C virus [2] is 26.3%; in experiment [4], -6.6%.

For the compound `COC(=O)[C@]12CCC(C)(C)C[C@H]1C1=CC[C@@H]3[C@@]4(C)CC[C@H](O[Si](C)(C)C(C)(C)C)C(C)(C)[C@@H]4CC[C@@]3(C)[C@]1(C)CC2=O`, the inhibition at 5 µM was -3.8% in the experiment with Hepatitis C virus [1] and 40.2% in experiment [3]. For the same compound, the inhibition at 1 µM in the experiment on Hepatitis C virus [2] came to 11.5%; in experiment [4], 45.3%.

With `COC(=O)[C@]12CCC(C)(C)C[C@H]1C1=CC[C@@H]3[C@@]4(C)CCC(=O)C(C)(C)[C@@H]4CC[C@@]3(C)[C@]1(C)CC2=O`, the results for the inhibition at 5 µM (in the experiment with Hepatitis C virus [1]; in experiment [3]) were 70.1% and -2.8%, respectively. Besides, the inhibition at 1 µM in the experiment on Hepatitis C virus [2] was 48.2%; in experiment [4], -10%.

For the compound `CC(=O)OC[C@H]1O[C@@H](OC(=O)[C@]23CCC(C)(C)C[C@H]2C2=CC[C@@H]4[C@@]5(C)CC[C@H](O)C(C)(C)[C@@H]5CC[C@@]4(C)[C@]2(C)C[C@H]3O)[C@H](OC(C)=O)[C@@H](OC(C)=O)[C@@H]1OC(C)=O`, the inhibition at 5 µM was found to be 78.3% in the experiment on Hepatitis C virus [1] and 13.9% in experiment [3]. For the same compound, the inhibition at 1 µM was found to be 35.7% in the experiment with Hepatitis C virus [2] and 3.7% in experiment [4].

As for `CC1(C)CC[C@]2(C(=O)O[C@@H]3O[C@H](CO)[C@@H](O[C@@H]4O[C@H](CO)[C@H](O)[C@H](O)[C@H]4O)[C@H](O)[C@H]3O)[C@H](O)C[C@]3(C)C(=CC[C@@H]4[C@@]5(C)CC[C@H](O)C(C)(C)[C@@H]5CC[C@]43C)[C@@H]2C1`, the inhibition at 5 µM in the experiment on Hepatitis C virus [1] is 40.1%; in experiment [3] it was 16.7%. The inhibition at 1 µM with Hepatitis C virus [2] is 32.7%; in experiment [4], 22.6%.

For the compound `CC(=O)OC[C@H]1O[C@@H](n2cc(CNC(=O)[C@]34CCC(C)(C)C[C@H]3C3=CC[C@@H]5[C@@]6(C)CC[C@H](O)C(C)(C)[C@@H]6CC[C@@]5(C)[C@]3(C)C[C@H]4O)nn2)[C@@H](OC(C)=O)[C@@H](OC(C)=O)[C@@H]1OC(C)=O`, the inhibition at 5 µM in the experiment with Hepatitis C virus [1] worked out at 81.5%; in experiment [3] it was 14.7%. Also, the inhibition at 1 µM is 21.8% in the experiment on Hepatitis C virus [2] and -5.3% in experiment [4].

In general, inhibition refers to the change of the read-out against control, counted positive when it falls.

The record behind these values is ChEMBL document CHEMBL2385072, “Development of oleanane-type triterpenes as a new class of HCV entry inhibitors” (J Med Chem, 2013).
